One experiment relates to Jurkat. The experiment is described as follows: Antiproliferative activity against human Jurkat T cells assessed as decrease in cell viability measured after 24 to 72 hrs by MTT assay. In kind it is functional, cell-based. For orientation: Tetrazolium dyes change colour on reduction, which living cells bring about.
For another experiment, the system named is IEC-6. The experiment is described as follows: Cytotoxicity against rat IEC-6 cells assessed as reduction in cell viability measured after 24 to 72 hrs by MTT assay. The settings on record: Rattus norvegicus, IEC-6. In kind it is cell-based.
In a further experiment the target is SRSF protein kinase 1 (Homo sapiens, UniProt Q96SB4). The experiment is described as follows: Inhibition of recombinant human full-length N-terminal GST-His6-fused SRPK1 (M1 to S655 residues) expressed in Sf9 insect cells using RS-peptide as substrate measured after 60 mins in presence of [gamma-33P]-ATP by scintillation counting method.
Experiment [1] addresses BDNF/NT-3 growth factors receptor (Homo sapiens, UniProt Q16620). The experiment is described as follows: Inhibition of recombinant human N-terminal GST-His6-fused TRKB C-terminal domain (V526 to G838 residues) expressed in Sf9 insect cells using Poly(Glu:Tyr)4:1 as substrate measured after 60 mins in presence of [gamma-33P]-ATP by scintillation counting method.
Experiment [2] concerns the target Receptor tyrosine-protein kinase erbB-2 (Homo sapiens, UniProt P04626). The experiment is described as follows: Inhibition of recombinant human wild-type N-terminal GST-His6-fused ERBB2 C-terminal domain (Q679 to V1255 residues) expressed in Sf9 insect cells using Poly(Glu:Tyr)4:1 as substrate measured after 60 mins in presence of [gamma-33P]-ATP by scintillation counting method.

Experiment [3] concerns the target Mitogen-activated protein kinase 15 (Homo sapiens, UniProt Q8TD08). Put plainly: Inhibition of recombinant human N-terminal 4xFLAG-tagged/C-terminal His8-fused ERK7 N-terminal domain (M1 to R354 residues) expressed in Sf9 insect cells using RBER-CHKtide as substrate measured after 60 mins in presence of [gamma-33P]-ATP by scintillation counting method.
Experiment [4] concerns the target Hepatocyte growth factor receptor (Homo sapiens, UniProt P08581). The experiment is described as follows: Inhibition of recombinant human wild-type N-terminal GST-His6-fused MET C-terminal domain (K956 to S1390 residues) expressed in Sf9 insect cells using TRK-C derived peptide as substrate measured after 60 mins in presence of [gamma-33P]-ATP by scintillation counting method.

The target in experiment [5] is Tyrosine-protein kinase ABL1 (Homo sapiens, UniProt P00519). Put plainly: Inhibition of recombinant human wild-type N-terminal GST-His6-fused ABL1 internal domain (P118 to S535 residues) expressed in Sf9 insect cells using Poly(Ala,Glu,Lys,Tyr)6:2:5:1 as substrate measured after 60 mins in presence of [gamma-33P]-ATP by scintillation counting method.
For experiment [6], the target named is Casein kinase II subunit alpha' (Homo sapiens, UniProt P19784). Put plainly: Inhibition of recombinant human full-length N-terminal GST-His6-fused CK2-alpha2 (M1 to R350 residues) expressed in Sf9 insect cells using casein as substrate measured after 60 mins in presence of [gamma-33P]-ATP by scintillation counting method.
In experiment [7] the target is Casein kinase II subunit alpha (Homo sapiens, UniProt P68400). The experiment is described as follows: Inhibition of recombinant human full-length N-terminal GST-fused CK2-alpha1 (M1 to Q391 residues) expressed in Sf9 insect cells using casein as substrate measured after 60 mins in presence of [gamma-33P]-ATP by scintillation counting method.
In another experiment the test system is HeLa. The experiment is described as follows: Induction of apoptosis in human HeLa cells assessed as increase in hypodiploid nuclei at 0.3 to 0.6 uM measured after 24 hrs by propidium iodide staining-based FACS analysis. In kind it is functional, cell-based.

Activity calls are given as the source filed them. The rule behind the calls is not given here.

Turning to `CN(CCc1ccc(-c2ccccc2)cc1)Cc1cn(C)c2ccc(C(=O)Nc3ccc(F)cc3)cc12`, the IC50 (as a rule, the concentration that gives 50% inhibition) in the experiment on Jurkat stood at 2.7 µM; with IEC-6, 6.43 µM; on SRSF protein kinase 1 it was 7.8 µM; in experiment [1] it was 6.3 µM; in [2] it was 24 µM; in experiment [3], 61 µM. Further, the IC50 was 61 µM in experiment [4], 69 µM in experiment [5], 99 µM in experiment [6] and above 100 µM in experiment [7]. In addition, the result in the experiment with HeLa was Active.

Source of the values: ChEMBL document CHEMBL4340507, “Identification of an indol-based multi-target kinase inhibitor through phenotype screening and target fishing using inverse virtual screening approach” (Eur J Med Chem, 2019).
